Test results taken from patent US20140357726A1, “USE OF PEGYLATED ALCOHOLS FOR THE TREATMENT OF ACTINIC KERATOSIS” (MERZ PHARMA GmbH & CO. KGaA, priority 2011, published 2014).

Test system: NHEK-cells
Experiment: Resazurin viability assay on primary normal human epidermal keratinocytes (cytolytic potential)
Assay type: cell-based
Settings: metabolic activity as read-out (Resazurin-assay); eight concentrations up to 1 mM
Protocol: By using primary, normal human epidermal keratinocytes (NHEK, FIG. 1) the cytolytic potential of the drug compound was investigated.
The viability of the cells was monitored by their metabolic activity using the Resazurin-assay. Eight different concentrations (up to 1 mM) of polidocanol were investigated. Viability of the cells was plotted against the different concentration of test compound.
From the resulting sigmoid-curve the IC50 value for the cytolytic effect was determined and given in the respective figure. FIG. 1 depicts the relative viability of NHEK-cells vs. the concentration of test-compound using metabolic activity as read-out.

Polidocanol
relative viability of NHEK-cells vs. the concentration of test-compound: clear negative-impact
